Data as given in the NIST ThermoML archive (doi:10.1016/j.tca.2014.05.014).

Assays:
[1] = 101 kPa, Liquid, Vibrating tube method
[2] = mn = molality of the nth substance listed, in mol/kg; settings: 101 kPa, Liquid; for speed of sound: Frequency=3 MHz, Sing-around technique in a fixed-path interferometer; for mass density: Vibrating tube method

O [water]
[1]
Settings	mass density [kg/m3]
288.15 K	999.591
293.15 K	998.551
298.15 K	997.255
303.15 K	995.775
308.15 K	994.329

OC[C@H]1O[C@@](CO)(O[C@H]2O[C@H](CO)[C@@H](O)[C@H](O)[C@H]2O)[C@@H](O)[C@@H]1O [D-sucrose] + O
[2]
Settings	mass density, 288.15 K [kg/m3]	mass density, 293.15 K [kg/m3]	mass density, 298.15 K [kg/m3]	mass density, 303.15 K [kg/m3]	mass density, 308.15 K [kg/m3]	speed of sound, 288.15 K [m/s]	speed of sound, 293.15 K [m/s]	speed of sound, 298.15 K [m/s]	speed of sound, 303.15 K [m/s]	speed of sound, 308.15 K [m/s]
m1 = 0.05	1006.43	1005.42	1004.16	1002.72	1001.27	1471.5	1487.4	1501.4	1513.5	1523.7
m1 = 0.15	1019	1017.99	1016.73	1015.24	1013.54	1481	1496.3	1509.9	1521.7	1531.8
m1 = 0.25	1030.99	1029.9	1028.58	1026.97	1025.28	1490.7	1505.7	1518.9	1530.3	1539.9
m1 = 0.35	1042.86	1041.71	1040.32	1038.71	1036.92	1500.5	1515	1527.7	1538.7	1548.2
